Reference: ChEMBL document CHEMBL2074360, “Sequence analysis and functional characterization of the 5'-flanking region of the rat multidrug resistance protein 2 (mrp2) gene” (Biochem Biophys Res Commun, 1998)

Key:
[1] = molecular target: T1, ATP-binding cassette sub-family C member 2 (Rattus norvegicus, UniProt Q63120); assay: TP_TRANSPORTER: Northern blot from H4IIE rat hepatoma cells; assay type: functional, cell-based
[2] = molecular target: T1, ATP-binding cassette sub-family C member 2; assay: TP_TRANSPORTER: Western blot, H4IIE rat hepatoma cells; assay type: functional, cell-based

T1 sequence (Q63120 whole entry): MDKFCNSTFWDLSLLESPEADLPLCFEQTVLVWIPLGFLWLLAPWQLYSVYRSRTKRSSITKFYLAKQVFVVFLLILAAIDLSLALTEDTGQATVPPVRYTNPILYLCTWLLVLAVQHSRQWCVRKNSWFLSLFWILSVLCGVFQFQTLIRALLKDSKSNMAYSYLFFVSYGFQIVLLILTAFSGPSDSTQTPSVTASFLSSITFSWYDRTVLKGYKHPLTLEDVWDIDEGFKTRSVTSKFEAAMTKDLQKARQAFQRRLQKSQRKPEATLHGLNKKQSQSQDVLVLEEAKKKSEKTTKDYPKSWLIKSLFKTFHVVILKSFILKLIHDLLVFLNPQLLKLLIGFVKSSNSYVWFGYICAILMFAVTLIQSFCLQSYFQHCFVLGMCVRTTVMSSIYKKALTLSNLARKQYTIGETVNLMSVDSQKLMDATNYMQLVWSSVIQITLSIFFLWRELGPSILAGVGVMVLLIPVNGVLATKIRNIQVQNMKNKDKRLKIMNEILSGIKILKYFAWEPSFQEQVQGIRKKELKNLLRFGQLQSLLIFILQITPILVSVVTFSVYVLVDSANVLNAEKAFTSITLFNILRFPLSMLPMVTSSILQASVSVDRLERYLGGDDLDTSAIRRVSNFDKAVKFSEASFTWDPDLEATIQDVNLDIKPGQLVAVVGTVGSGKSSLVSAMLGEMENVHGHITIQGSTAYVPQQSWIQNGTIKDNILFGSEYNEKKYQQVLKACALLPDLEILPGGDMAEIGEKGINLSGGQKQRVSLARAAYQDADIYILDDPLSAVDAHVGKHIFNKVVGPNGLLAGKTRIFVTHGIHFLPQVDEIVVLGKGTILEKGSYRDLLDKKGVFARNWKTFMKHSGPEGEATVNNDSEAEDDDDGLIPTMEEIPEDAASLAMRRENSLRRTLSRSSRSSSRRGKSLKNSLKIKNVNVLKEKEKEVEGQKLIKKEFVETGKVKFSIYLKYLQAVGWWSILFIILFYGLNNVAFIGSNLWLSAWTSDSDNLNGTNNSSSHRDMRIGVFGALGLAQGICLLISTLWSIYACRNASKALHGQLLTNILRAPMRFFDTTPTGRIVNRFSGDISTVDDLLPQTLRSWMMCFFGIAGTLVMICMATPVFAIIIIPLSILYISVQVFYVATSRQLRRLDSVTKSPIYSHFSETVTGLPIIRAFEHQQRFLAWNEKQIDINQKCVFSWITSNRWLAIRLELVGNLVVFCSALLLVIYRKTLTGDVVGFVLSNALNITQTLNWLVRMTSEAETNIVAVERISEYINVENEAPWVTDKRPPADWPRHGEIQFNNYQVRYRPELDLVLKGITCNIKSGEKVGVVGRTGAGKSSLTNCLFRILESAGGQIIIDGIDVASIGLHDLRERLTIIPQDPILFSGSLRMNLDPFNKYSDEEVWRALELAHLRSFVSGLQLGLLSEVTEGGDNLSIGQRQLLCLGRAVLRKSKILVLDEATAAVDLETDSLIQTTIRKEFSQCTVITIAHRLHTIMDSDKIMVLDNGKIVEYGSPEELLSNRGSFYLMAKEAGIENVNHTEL

SMILES	Activity [1]	Activity [2]
CCC1(c2ccccc2)C(=O)NC(=O)NC1=O [PHENOBARBITAL]	inducer [+]	inducer [+]
C#C[C@]1(O)CC[C@H]2[C@@H]3CCc4cc(O)ccc4[C@H]3CC[C@@]21C [ETHINYL ESTRADIOL]	inducer [+]	inducer [+]
